≈ marks a conversion by molar mass, not a printed value. One block for each molecule: values may come before it.
Experiments:
[1] = molecular target: T1, Cyclin-dependent kinase 2/cyclin E1 (Homo sapiens, UniProt P24941); type: cell-based, Sf9
[2] = molecular target: T1, Cyclin-dependent kinase 2/cyclin E1; type: cell-based, Sf9; remark: listed apart in the source
[3] = molecular target: Cyclin-dependent kinase 1/cyclin B1 (Homo sapiens, UniProt P06493); type: cell-based, Sf9
[4] = molecular target: Vascular endothelial growth factor receptor 2 (Homo sapiens, UniProt P35968); type: cell-based, Sf9
Carbonic anhydrase 2 = Carbonic anhydrase 2 (Homo sapiens, UniProt P00918); type: ADME
Description: Inhibition of human carbonic anhydrase 2 using 4-nitrophenyl acetate as substrate by spectrophotometry

MCF7 = test: cells; type: functional, cell-based; conditions: Homo sapiens, MCF7, 96 h
Description: Antiproliferative activity against human MCF7 cells incubated for 4 days by crystal violet staining based assay

Rattus norvegicus [5] = organism: Rattus norvegicus; test: animal or person; type: functional; conditions: iv, 0.5 min, time 30 sec
Description: Antiallergic activity in iv dosed rat model of IgE-mediated passive cutaneous anaphylaxis administered 30 secs prior to IgE challenge

Dipeptidyl peptidase 4 = Dipeptidyl peptidase 4 (Homo sapiens, UniProt P27487)
Description: Inhibition of human DPP4 expressed in baculovirus expression system using Gly-Pro-AMC as substrate by fluorometric assay

Rattus norvegicus [6] = organism: Rattus norvegicus; test: animal or person; type: functional; conditions: po, 0.5 h, time 30 min
Description: Antiallergic activity in po dosed rat model of IgE-mediated passive cutaneous anaphylaxis administered 30 mins prior to IgE challenge

A-375 = test: cells; type: functional; conditions: Homo sapiens, time 72 hrs
Description: Antiproliferative activity against human A375 cells assessed as cell proliferation at 25 uM after 72 hrs by alamarBlue cell proliferation assay relative to control

in vitro [7] = conditions: human, Caco-2
Description: Apparent permeability across apical to basolateral side in human Caco2 cells at 2 uM measured after 2 hrs by LC-MS/MS analysis

[8] = molecular target: T2, 1,25-dihydroxyvitamin D(3) 24-hydroxylase, mitochondrial (Homo sapiens, UniProt Q07973); test: biochemical; type: cell-based, V79
T2 sequence (Q07973 whole entry): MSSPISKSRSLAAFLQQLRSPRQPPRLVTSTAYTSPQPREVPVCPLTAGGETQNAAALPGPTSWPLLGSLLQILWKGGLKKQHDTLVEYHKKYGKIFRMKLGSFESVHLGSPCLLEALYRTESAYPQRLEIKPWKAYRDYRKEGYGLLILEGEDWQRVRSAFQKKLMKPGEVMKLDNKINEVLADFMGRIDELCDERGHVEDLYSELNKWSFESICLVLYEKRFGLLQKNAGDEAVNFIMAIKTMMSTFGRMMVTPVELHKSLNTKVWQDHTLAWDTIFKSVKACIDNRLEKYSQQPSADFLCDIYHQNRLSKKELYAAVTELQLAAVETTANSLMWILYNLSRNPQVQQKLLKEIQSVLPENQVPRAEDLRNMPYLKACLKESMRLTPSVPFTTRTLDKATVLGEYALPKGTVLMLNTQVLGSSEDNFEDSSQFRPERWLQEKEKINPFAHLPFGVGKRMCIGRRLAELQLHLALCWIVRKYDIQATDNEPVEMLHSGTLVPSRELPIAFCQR

Beta-secretase 1 = Beta-secretase 1 (Homo sapiens, UniProt P56817); type: cell-based, HEK293
Description: Inhibition of BACE1 in HEK293 cells harboring APP assessed as reduction in amyloidbeta 40 level measured after 18 to 20 hrs by AlphaLISA Assay

physchem [9] = conditions: buffer
Description: Thermodynamic solubility in water by equilibrium shake-flask method

in vitro [10] = conditions: human, Caco-2; remark: listed apart in the source
Description: Efflux ratio of apparent permeability across basolateral to apical side over apical to basolateral side in human Caco2 cells

[11] = molecular target: cGMP-specific 3',5'-cyclic phosphodiesterase (Homo sapiens, UniProt O76074); type: cell-based; conditions: platelet
Description: Inhibition of human platelets derived PDE5 using [3H]-cGMP as substrate incubated for 60 min by scintillation proximity assay

Plasmodium falciparum [12] = test: microbe, parasite or virus in culture; type: functional, organism-based; conditions: 3D7, Erythrocyte, 48 h
Description: Antiplasmodial activity against Plasmodium falciparum 3D7 infected in human erythrocytes incubated for 48 hrs by lactate dehydrogenase colorimetric enzyme assay

[13] = molecular target: T3, Nuclear receptor ROR-gamma (Homo sapiens, UniProt P51449); type: cell-based, CD4+ve Th
T3 sequence (P51449 whole entry): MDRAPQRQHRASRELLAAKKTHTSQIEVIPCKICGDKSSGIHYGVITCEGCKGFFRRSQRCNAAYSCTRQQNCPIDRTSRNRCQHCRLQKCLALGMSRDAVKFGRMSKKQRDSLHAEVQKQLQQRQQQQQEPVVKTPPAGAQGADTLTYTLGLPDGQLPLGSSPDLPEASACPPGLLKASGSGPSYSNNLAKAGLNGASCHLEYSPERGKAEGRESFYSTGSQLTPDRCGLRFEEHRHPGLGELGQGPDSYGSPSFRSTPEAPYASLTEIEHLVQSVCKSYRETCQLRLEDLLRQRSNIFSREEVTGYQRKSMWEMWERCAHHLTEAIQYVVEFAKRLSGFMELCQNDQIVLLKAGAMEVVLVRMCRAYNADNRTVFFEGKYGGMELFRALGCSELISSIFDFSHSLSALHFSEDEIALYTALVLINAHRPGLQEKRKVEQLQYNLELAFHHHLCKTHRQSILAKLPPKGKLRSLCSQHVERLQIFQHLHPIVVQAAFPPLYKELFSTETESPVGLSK
Description: Inverse agonist activity at RORgammat in human CD4-positive T cells assessed as reduction in Th17 level incubated for 5 days by MSD electrochemiluminescent cytokine assay

Plasmodium falciparum [14] = test: microbe, parasite or virus in culture; type: functional, organism-based; conditions: 3D7
Description: Antiplasmodial activity against Plasmodium falciparum 3D7

Estrogen receptor = molecular target: T4, Estrogen receptor (Homo sapiens, UniProt P03372)
T4 sequence (P03372 whole entry): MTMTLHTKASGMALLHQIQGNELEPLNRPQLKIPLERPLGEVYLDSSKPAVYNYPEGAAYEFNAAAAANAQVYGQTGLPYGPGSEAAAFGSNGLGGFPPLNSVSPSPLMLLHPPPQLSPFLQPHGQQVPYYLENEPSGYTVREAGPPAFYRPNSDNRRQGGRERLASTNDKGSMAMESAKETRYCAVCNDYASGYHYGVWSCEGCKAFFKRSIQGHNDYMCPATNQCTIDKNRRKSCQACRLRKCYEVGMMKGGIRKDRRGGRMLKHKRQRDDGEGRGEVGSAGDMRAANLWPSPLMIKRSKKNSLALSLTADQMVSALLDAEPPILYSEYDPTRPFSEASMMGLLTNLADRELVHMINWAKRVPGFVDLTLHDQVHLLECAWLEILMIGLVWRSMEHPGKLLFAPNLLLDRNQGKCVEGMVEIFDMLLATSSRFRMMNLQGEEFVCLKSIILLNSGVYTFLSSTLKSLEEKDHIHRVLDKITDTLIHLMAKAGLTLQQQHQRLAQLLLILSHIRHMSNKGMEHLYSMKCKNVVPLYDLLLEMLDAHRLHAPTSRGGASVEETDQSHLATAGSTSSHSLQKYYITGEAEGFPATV
Description: Inhibition of wild type ESR1 (unknown origin) by transactivation assay

[15] = human, hepatocytes, 1 µM
Description: Clearance in human hepatocytes at 1 uM measured after 2 to 90 mins by HPLC-based LCMS/MS analysis

[16] = rat, hepatocytes, 1 µM
Description: Clearance in rat hepatocytes at 1 uM measured after 2 to 90 mins by HPLC-based LCMS/MS analysis

physchem [17] = conditions: in vivo, pH 7.4
HeLa = test: cells; type: functional, cell-based; conditions: Homo sapiens, 96 h
Description: Antiproliferative activity against human HeLa cells incubated for 96 hrs by crystal violet staining assay

physchem [18] = conditions: in vivo, pH 6.5

Sequence of Vascular endothelial growth factor receptor 2 (P35968 whole entry): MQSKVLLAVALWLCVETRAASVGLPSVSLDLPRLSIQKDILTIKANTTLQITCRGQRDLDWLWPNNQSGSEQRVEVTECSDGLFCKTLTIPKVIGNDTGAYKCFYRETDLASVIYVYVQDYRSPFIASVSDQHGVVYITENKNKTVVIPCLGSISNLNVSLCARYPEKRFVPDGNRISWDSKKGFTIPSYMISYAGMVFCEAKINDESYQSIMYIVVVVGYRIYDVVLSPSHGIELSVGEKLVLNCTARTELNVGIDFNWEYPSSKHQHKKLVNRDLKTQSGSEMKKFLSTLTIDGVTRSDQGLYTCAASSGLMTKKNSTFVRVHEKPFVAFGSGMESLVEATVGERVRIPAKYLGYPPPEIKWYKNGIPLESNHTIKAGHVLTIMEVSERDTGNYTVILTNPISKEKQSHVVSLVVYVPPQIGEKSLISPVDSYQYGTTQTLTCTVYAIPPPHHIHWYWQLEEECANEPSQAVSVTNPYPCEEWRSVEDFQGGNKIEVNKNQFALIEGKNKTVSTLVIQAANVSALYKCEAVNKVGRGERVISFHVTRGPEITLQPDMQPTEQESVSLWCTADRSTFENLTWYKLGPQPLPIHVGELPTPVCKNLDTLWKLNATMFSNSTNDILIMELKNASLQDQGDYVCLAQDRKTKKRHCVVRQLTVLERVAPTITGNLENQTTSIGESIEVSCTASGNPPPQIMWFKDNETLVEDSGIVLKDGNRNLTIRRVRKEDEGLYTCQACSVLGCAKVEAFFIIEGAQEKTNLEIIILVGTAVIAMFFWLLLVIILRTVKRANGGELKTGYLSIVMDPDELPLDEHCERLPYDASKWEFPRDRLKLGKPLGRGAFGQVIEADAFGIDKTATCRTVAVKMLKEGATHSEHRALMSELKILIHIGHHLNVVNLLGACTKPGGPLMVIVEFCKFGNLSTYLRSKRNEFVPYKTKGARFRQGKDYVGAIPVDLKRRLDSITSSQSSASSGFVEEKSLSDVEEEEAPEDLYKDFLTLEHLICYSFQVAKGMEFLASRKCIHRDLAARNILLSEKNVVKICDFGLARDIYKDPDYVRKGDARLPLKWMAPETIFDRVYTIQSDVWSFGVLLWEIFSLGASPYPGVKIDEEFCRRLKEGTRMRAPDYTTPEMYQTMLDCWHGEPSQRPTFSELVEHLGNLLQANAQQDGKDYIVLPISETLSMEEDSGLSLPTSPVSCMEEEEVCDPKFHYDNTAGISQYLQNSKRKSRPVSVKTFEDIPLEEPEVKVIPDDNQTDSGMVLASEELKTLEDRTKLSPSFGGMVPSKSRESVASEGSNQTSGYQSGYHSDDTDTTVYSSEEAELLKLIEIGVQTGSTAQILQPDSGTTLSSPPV
Sequence of Beta-secretase 1 (P56817 whole entry): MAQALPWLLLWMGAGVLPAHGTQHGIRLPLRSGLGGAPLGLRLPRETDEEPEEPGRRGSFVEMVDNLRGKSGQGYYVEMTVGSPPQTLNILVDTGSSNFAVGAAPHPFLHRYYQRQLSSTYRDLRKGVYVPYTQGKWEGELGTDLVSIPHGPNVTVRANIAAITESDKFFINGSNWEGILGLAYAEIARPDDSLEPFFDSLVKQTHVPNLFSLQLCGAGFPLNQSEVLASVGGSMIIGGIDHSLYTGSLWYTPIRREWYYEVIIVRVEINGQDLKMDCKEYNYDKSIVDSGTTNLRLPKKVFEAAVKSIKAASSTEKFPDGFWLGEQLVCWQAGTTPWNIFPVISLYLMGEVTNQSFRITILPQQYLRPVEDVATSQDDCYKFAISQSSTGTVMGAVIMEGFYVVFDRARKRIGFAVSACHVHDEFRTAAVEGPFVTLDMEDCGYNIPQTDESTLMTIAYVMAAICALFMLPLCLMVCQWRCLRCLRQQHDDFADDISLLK
Sequence of Dipeptidyl peptidase 4 (P27487 whole entry): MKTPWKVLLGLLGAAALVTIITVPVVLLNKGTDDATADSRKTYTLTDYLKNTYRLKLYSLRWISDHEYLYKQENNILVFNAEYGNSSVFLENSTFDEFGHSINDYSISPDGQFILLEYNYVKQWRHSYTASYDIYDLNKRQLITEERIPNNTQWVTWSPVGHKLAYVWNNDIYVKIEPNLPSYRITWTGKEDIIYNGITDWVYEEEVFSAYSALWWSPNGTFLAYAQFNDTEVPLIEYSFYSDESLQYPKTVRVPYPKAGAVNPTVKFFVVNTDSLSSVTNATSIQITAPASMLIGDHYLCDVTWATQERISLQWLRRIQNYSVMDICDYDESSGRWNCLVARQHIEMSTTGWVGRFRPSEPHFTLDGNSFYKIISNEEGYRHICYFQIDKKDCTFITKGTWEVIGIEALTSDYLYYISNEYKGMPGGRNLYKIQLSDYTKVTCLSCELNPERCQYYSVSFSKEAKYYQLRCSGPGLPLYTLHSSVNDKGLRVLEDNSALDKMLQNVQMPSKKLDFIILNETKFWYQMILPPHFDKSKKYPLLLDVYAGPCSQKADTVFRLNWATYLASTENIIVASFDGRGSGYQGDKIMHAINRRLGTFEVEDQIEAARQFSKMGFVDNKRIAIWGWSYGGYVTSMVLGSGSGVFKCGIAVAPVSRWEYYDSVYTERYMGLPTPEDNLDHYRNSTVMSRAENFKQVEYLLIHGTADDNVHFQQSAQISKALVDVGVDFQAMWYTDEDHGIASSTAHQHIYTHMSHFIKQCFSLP
Sequence of Cyclin-dependent kinase 1/cyclin B1 (P06493 whole entry): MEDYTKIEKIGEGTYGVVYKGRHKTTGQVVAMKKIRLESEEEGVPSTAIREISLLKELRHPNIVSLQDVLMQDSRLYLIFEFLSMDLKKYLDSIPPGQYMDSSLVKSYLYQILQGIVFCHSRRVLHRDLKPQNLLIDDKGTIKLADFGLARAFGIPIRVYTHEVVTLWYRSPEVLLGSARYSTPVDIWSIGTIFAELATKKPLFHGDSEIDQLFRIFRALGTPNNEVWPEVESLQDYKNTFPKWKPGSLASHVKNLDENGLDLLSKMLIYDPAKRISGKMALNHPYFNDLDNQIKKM
Sequence of Cyclin-dependent kinase 1/cyclin B1 (P14635 whole entry, further chain): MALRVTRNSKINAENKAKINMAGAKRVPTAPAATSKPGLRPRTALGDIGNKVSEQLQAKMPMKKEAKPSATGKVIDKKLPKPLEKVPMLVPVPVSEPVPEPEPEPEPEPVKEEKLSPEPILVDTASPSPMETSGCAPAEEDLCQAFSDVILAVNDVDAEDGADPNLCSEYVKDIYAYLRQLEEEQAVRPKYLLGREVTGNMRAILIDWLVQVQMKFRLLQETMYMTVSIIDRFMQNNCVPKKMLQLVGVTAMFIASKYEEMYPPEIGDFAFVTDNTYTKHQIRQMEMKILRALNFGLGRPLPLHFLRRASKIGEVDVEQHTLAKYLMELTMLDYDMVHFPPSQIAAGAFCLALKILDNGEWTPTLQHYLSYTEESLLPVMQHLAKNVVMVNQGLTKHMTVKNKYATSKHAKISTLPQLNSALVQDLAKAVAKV

Compound: COc1cc(F)ccc1-c1cc(Nc2cc(C[S@@](C)(=N)=O)ccn2)ncc1F
IC50 [1]: 2920 nM

Compound: CCS(=N)(=O)c1ccc(Nc2ncc(Br)c(O[C@H](C)[C@@H](C)O)n2)cc1 (some centres not stated)
IC50 [2]: 3 nM | IC50 [3]: 2 nM | IC50 [4]: 32 nM | IC50 (Carbonic anhydrase 2): > 10000 nM | IC50 (MCF7): 44 nM

Compound: O=C([O-])c1cc(=O)c2c(OCC(O)COc3cccc4oc(C(=O)[O-])cc(=O)c34)cccc2o1.[Na+].[Na+] [CROMOLYN SODIUM]
ED50 (Rattus norvegicus [5]): 1.21 mg/kg

Compound: CCCCCCc1cc(S(C)(=N)=O)cc2c(=O)c3cc(C(=O)O)ccc3oc12 (configuration not stated) [SUDEXANOX]
ED50 (Rattus norvegicus [6]): 0.19 mg/kg

Compound: O=C(NS(=O)(=O)c1ccc(Br)s1)c1ccc(Cl)cc1Cl
growth at 25 µM (A-375): 25%

Compound: C=C1/C(=C\C=C2/CCC[C@]3(C)C([C@H](C)/C=C/S(=O)(=O)C(C)(C)C)=CC[C@@H]23)C[C@@H](O)C[C@@H]1O
IC50 [8]: 27 nM

Compound: CN=S1(=O)C[C@@](C)(c2cc(NC(=O)c3ncc(C#N)cc3C)ccc2F)N=C(N)N1CC(F)(F)F (single isomer, unassigned)
IC50 (Beta-secretase 1): 0.59 nM

Compound: C[C@@H](O)[C@@H](C)Oc1nc(Nc2ccc([S@](=N)(=O)C3CC3)cc2)ncc1C(F)(F)F
IC50 [4]: 163 nM | IC50 (Carbonic anhydrase 2): > 10000 nM | solubility thermodynamic (physchem [9]): 182 µg/mL (≈ 423 µM)

Compound: CN=S1(=O)C[C@@H]2[C@@H](OCc3ccccc3)[C@H](OCc3ccccc3)[C@@H](COCc3ccccc3)O[C@@H]2c2cc(C(C)(C)C)ccc21 (some centres not stated)
IC50 (Plasmodium falciparum [12]): 900 nM

Compound: CCc1ccc(N(CC(C)C)S(=O)(=O)c2ccc(OCC3CCOCC3)c(CO)c2)cc1 [GSK2981278]
IC50 [13]: 3.2 nM

Compound: Cc1cc(C#N)cnc1C(=O)Nc1ccc(F)c([C@]2(C)CS(=O)(=NCC(F)(F)F)N(C)C(N)=N2)c1 (single isomer, unassigned)
IC50 (Beta-secretase 1): 0.99 nM

Compound: CCCCCCCCCCCS(=O)(=NCc1cn(Cc2ccccc2)nn1)c1ccccc1 (configuration not stated)
IC50 (Plasmodium falciparum [14]): 6600 nM

Compound: COc1cc(F)ccc1-c1ncnc(Nc2cccc(C[S@](C)(=N)=O)c2)n1 [ATUVECICLIB]
solubility thermodynamic at 24 h (physchem [17]): 479 µg/mL (≈ 1240 µM) | IC50 (HeLa): 1500 nM

Compound: CS(=N)(=O)c1ccc2oc3ccc(C(=O)O)cc3c(=O)c2c1 (configuration not stated)
ED50 (Rattus norvegicus [5]): 0.03 mg/kg

Compound: COc1cc(F)ccc1-c1ncnc(Nc2cccc(CS(N)(=O)=O)c2)n1
solubility thermodynamic at 24 h (physchem [17]): 11 µg/mL (≈ 28.2 µM)

Compound: N=S(=O)(NC(=O)c1ccc(Cl)cc1Cl)c1ccc(Br)s1 (configuration not stated)
growth at 25 µM (A-375): 40%

Compound: CC(C)(C)c1ccc2c(c1)[C@H]1O[C@H](COCc3ccccc3)[C@@H](OCc3ccccc3)[C@H](OCc3ccccc3)[C@H]1C[S@@]2(=N)=O
IC50 (Plasmodium falciparum [12]): 800 nM

Now from value to molecule:

IC50 (Dipeptidyl peptidase 4): 18 nM
Compound: CS(=O)(=NS(=O)(=O)c1ccccc1)n1cc2c(n1)CN([C@H]1CO[C@H](c3cc(F)ccc3F)[C@@H](N)C1)C2 (some centres not stated)

Papp A→B at 2 h, 2 µM (in vitro [7]): 206 ×10⁻⁶ cm/s
Compound: CCCc1nc(C)c2c(=O)[nH]c(-c3cc(S(=O)(=O)N4CCN(CC)CC4)ccc3OCC)nn12

IC50 (Beta-secretase 1): 2 nM
Compound: C[C@@]1(c2cc(NC(=O)c3cnc(C#N)cn3)ccc2F)CS2(=O)=NCC(F)(F)CN2C(N)=N1 (single isomer, unassigned)

IC50 (Carbonic anhydrase 2): > 10000 nM
Compound: C[C@@H](O)[C@@H](C)Oc1nc(Nc2ccc(S(C)(=O)=O)cc2)ncc1C(F)(F)F

efflux ratio (in vitro [10]): 288 | IC50 [11]: 0.025 nM | Papp A→B at 2 h, 2 µM (in vitro [7]): 0.71 ×10⁻⁶ cm/s
Compound: CCCc1nc(C)c2c(=O)[nH]c(-c3cc(S(=O)(=O)N4CCS(=N)(=O)CC4)ccc3OCC)nn12

IC50 (Estrogen receptor): 1.8 nM
Compound: C[C@]12CC[C@@H]3c4ccc(O)cc4C[C@@H](CCCCCCCCC[S@@](=N)(=O)CCCC(F)(F)C(F)(F)F)[C@H]3[C@@H]1CC[C@@H]2O

CLH [15]: 4 mL/min/kg | CLH [16]: 29.3 mL/min/kg
Compound: O=C(NC1CCNCC1)c1n[nH]cc1NC(=O)c1c(Cl)cccc1Cl [AT-7519]

IC50 (Beta-secretase 1): 28 nM
Compound: N#Cc1ccc(C(=O)Nc2ccc(F)c([C@]3(CF)CS4(=O)=NCCCCN4C(N)=N3)c2)nc1 (single isomer, unassigned)

solubility thermodynamic at 24 h (physchem [18]): 91 µg/mL (≈ 216 µM)
Compound: COc1cc(F)ccc1-c1nc(Nc2cc(F)cc(CS(C)(=N)=N)c2)ncc1F

IC50 (Dipeptidyl peptidase 4): 8.8 nM
Compound: N[C@H]1C[C@@H](N2Cc3cn(S(=O)(=O)NC(=O)c4ccccc4)nc3C2)CO[C@@H]1c1cc(F)ccc1F

CLH [15]: 1 mL/min/kg | CLH [16]: 1 mL/min/kg
Compound: N=S1(=O)CCC(NC(=O)c2n[nH]cc2NC(=O)c2c(Cl)cccc2Cl)CC1 (configuration not stated)

IC50 [4]: 34 nM | IC50 (Carbonic anhydrase 2): 514 nM | solubility thermodynamic (physchem [9]): 8 µg/mL
Compound: C[C@H](CO)Nc1nc(Nc2ccc(S(N)(=O)=O)cc2)ncc1Br.Cl

From ChEMBL document CHEMBL4706546, “Sulfoximines as Rising Stars in Modern Drug Discovery? Current Status and Perspective on an Emerging Functional Group in Medicinal Chemistry” (J Med Chem, 2020)
